Data: US8420624B2, “Methods for treating or preventing symptoms of hormonal variations” (Yung Shin Pharm. Ind. Co., Ltd., priority 2007, dated 2013)
Like-named read-outs stand apart in the source and are kept apart here.

Key:
dopamine receptors = conditions: cited from earlier work
serotonin receptors = conditions: cited from earlier work
α-adrenergic receptors = conditions: cited from earlier work
histamine receptors = conditions: cited from earlier work
hot flashes [1] = conditions: other pilot evaluations; compared with venlafaxine and paroxetine; cited from earlier work
hot flashes [2] = conditions: cited from earlier work
D2 receptors = D2 receptors (Homo sapiens, UniProt P14416); conditions: cited from earlier work
D2 receptors, sequence (P14416 whole entry): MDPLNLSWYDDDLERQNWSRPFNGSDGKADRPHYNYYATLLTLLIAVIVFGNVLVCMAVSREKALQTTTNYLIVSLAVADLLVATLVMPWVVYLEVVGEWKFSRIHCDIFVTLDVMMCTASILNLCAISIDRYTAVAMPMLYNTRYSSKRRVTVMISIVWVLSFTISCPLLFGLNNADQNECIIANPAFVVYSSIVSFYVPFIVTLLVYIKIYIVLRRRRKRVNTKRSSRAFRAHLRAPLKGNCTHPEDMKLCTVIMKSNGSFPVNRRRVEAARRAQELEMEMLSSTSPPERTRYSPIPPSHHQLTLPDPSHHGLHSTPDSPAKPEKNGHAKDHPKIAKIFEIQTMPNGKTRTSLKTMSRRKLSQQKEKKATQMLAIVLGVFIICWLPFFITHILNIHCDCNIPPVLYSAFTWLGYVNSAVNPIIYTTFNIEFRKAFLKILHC

D1 dopamine receptor = D1 dopamine receptor (Homo sapiens, UniProt P21728); conditions: cited from earlier work
D1 dopamine receptor, sequence (P21728 whole entry): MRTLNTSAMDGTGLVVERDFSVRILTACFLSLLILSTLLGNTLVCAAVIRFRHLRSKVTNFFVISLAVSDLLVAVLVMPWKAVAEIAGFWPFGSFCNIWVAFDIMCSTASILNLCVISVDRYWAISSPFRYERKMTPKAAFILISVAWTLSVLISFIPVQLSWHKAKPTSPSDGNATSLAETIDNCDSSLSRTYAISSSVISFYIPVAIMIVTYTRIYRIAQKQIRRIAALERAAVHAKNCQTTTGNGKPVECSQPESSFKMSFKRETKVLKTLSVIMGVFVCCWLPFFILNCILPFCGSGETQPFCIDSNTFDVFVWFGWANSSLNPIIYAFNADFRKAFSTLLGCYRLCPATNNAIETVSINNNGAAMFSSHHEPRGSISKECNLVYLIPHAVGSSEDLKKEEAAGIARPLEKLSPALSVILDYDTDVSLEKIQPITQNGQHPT

[3] = system: cholinergic muscarinic receptors; conditions: cited from earlier work
hot flashes [4] = assay: Case report: risperidone for hot flashes in a case with hysterectomy; assay type: in vivo, human; conditions: for response of hot flashes to earlier treatments: person, PREMARIN 0.625 mg/day, PROZAC 20 mg/day, TOFRANIL 20 mg/day, each for 1-2 months
Description: A person was admitted to the hospital in December of 2004 due to hot flashes, hypertension, and restlessness. They had been told that they were suffering from essential hypertension for 16 years and had taken anti-hypertension medications for several years. However, their blood pressure still fluctuated and frequently dropped below critical level after taking sublingual adalate (10 mg) for sudden onsets of high blood pressure. They had no history of psychiatric or systemic diseases, except for a total abdominal hysterectomy. On admission, it was observed that their hot flash attacks occurred many times a day, lasting a few minutes and was usually followed by high blood pressure up to 180-200/84-96 mmHg, general shivers, and anxiety for 20-60 minutes. Such clinical symptoms started and grew progressively worse.
[…] biochemical and hematological results, such as sodium and potassium levels, 140 mmol/L and 4.0 mmol/L, respectively, were all within normal ranges. […] The plasma adrenaline, nor-adrenaline, VMA, epinephrine, and dopamine levels as well as thyroid hormones, including T3, T4, and TSH, were also normal.
Because estrogen withdrawal may alter the thermoregulatory set-point located in the hypothalamus, by increasing the sensitivity of hypothalamic 5-HT2A receptor, a regimen of a 5-HT2A antagonist may provide an effective therapy for symptoms of hormonal variations, such as hot flashes. Thus, the patient was treated with risperidone (2 mg/day). […] Thereafter, the dosage of anti-hypertension drugs was reduced. With the patient's permission, risperidone therapy was discontinued and hot flashes reoccurred within 2-3 days after discontinuing the treatment. The symptoms were again alleviated 3-4 days after resuming risperidone treatment.

hot flashes [5] = assay: Case report: risperidone for hot flashes of natural menopause; assay type: in vivo, human
Excerpt: Patient 2 was a person who began developing intolerable hot flashes and night sweats after natural menopause that occurred seven years ago. […] One month after discontinuing hormone replacement therapy, they developed hot flashes up to ten times per day, night sweats up to three times per night that disrupted their sleep, and headaches. The patient then sought neurological consultation. The patient also suffered from headaches twice per day and fluctuating blood pressure. […] In addition, they slept well and their blood pressure stabilized. To assess the relationship between risperidone therapy and the resolution of hot flashes, risperidone was tapered off over 2 days. The patient experienced hot flashes and night sweats again two days after risperidone treatment was completely discontinued.

hot flashes [6] = assay: Case report: risperidone for hot flashes in a perimenopausal case; assay type: in vivo, human
Description: Patient 3 was a person who was diagnosed with perimenopause, based on increased levels of follicle-stimulating hormone, increased variability in menstrual cycle length, development of hot flashes, and insomnia. The patient had had these symptoms for two years. […] Risperidone treatment (1 mg per night) was started. At that time, the patient was experiencing seven hot flashes per day. […] With their permission, risperidone was tapered off over two days, and the hot flashes developed again three days later.

hot flashes [7] = assay: Case report: risperidone for residual hot flashes in a case with hormone replacement therapy; assay type: in vivo, human
Excerpt: Patient 4 was a person who had developed hot flashes, with a frequency of once per hour, palpitation, insomnia, headache, restlessness, and unstable blood pressure for over seven years. Initially, the patient visited a psychiatrist for their sleep disorder and a cardiovascular specialist for their high blood pressure. A year later, because of intolerable hot flashes and other menopausal symptoms, they received hormone replacement therapy (DIVINA®). Although their hot flashes were reduced to twice per day, headaches persisted and their blood pressure fluctuated from 180 to 210/110 to 90 mm Hg despite treatment with anti-hypertension drugs. The patient was started on risperidone treatment, 1 mg at bedtime for the first two days, followed by 2 mg per night, for residual hot flashes.

D2 dopamine receptor = D2 dopamine receptor (Homo sapiens, UniProt P14416); conditions: serial PET scans; cited from earlier work
D2 dopamine receptor, sequence (P14416 whole entry): as the sequence (P14416 whole entry) above

hot flashes [8] = conditions: cited from earlier work; for minimizing occurrence and severity of hot flashes versus placebo: randomized clinical trials
hot flashes [9] = conditions: pilot trials; cited from earlier work
hot flashes [10] = conditions: men and women; placebo 20 percent; cited from earlier work

O=C1Cc2cc(CCN3CCN(c4nsc5ccccc45)CC3)c(Cl)cc2N1 [ziprasidone]
affinity (dopamine receptors): high affinity
affinity (serotonin receptors): high affinity
affinity (α-adrenergic receptors): high affinity
affinity (histamine receptors): moderate affinity

CN1CCN2c3ncccc3Cc3ccccc3C2C1 (stereo not drawn) [mirtazapine]
alleviation of hot flashes (hot flashes [1]): alleviate hot flashes to a similar degree

Clc1cccc(Cl)c1N=C1NCCN1 [clonidine]
adverse effects (hot flashes [2]; common adverse effects in clinical trials): dry mouth, dizziness, and blurred vision
difference from placebo effect, self-reported hot flash frequency (hot flashes [2]; men, double blind cross over study): not statistically significant
efficacy against hot flashes versus placebo (hot flashes [2]; randomized clinical trials): moderately more efficacious than placebo
decrease of hot flash frequency greater than that seen with placebo (hot flashes [2]; women): 10-15%

CN(C)CCOC1=Cc2ccccc2Sc2ccc(Cl)cc21 [zotepine]
affinity (D2 receptors): high affinity
affinity (D1 dopamine receptor): high affinity

O=C1CCc2ccc(OCCCCN3CCN(c4cccc(Cl)c4Cl)CC3)cc2N1 [aripiprazole]
affinity (α-adrenergic receptors): moderate affinities
affinity (histamine receptors): moderate affinities
affinity [3]: no appreciable affinity

Cc1nc2n(c(=O)c1CCN1CCC(c3noc4cc(F)ccc34)CC1)CCCC2 [risperidone]
associated symptoms (palpitation, anxiety) (hot flashes [4]; risperidone 2 mg/day): improved significantly
hot flash frequency (hot flashes [4]; risperidone 2 mg/day, after three days of treatment, before: many times a day): reduced markedly to a frequency of once per 1-2 weeks
time to reoccurrence of hot flashes after discontinuing treatment (hot flashes [4]; risperidone discontinued): 2 to 3 days
time to alleviation of symptoms after resuming treatment (hot flashes [4]; risperidone resumed): 3 to 4 days
hot flashes after resuming treatment (hot flashes [5]; risperidone 2 mg daily resumed): has not suffered another hot flash since
blood pressure (hot flashes [5]; risperidone 2 mg per day): stabilized
sleep (hot flashes [5]; risperidone 2 mg per day): slept well
occurrence of hot flashes (hot flashes [5]; risperidone 2 mg per day, by day 7): completely eliminated
occurrence of hot flashes (hot flashes [5]; risperidone 2 mg per day, two days after start, before: up to ten times per day): reduced markedly
time to return of hot flashes and night sweats after treatment completely discontinued (hot flashes [5]; risperidone tapered off over 2 days): two
hot flashes at decreased dosage (hot flashes [6]; risperidone 0.25 mg or less per day, three months later): still markedly eliminated
hot flashes after resuming treatment (hot flashes [6]; risperidone 1 mg daily resumed): no longer experienced hot flashes
quality of sleep and life (hot flashes [6]; risperidone 1 mg daily resumed): improved
frequency and intensity of hot flashes (hot flashes [6]; risperidone 1 mg per night, three days after start, before: seven hot flashes per day): markedly reduced
time to return of hot flashes after tapering off (hot flashes [6]; risperidone tapered off over two days): three
residual hot flashes (hot flashes [7]; risperidone 1 mg at bedtime for two days, then 2 mg per night, three days after start): completely eliminated
blood pressure (hot flashes [7]; risperidone 1 mg then 2 mg per night): stabilized within the normal range

CN(C)CCCN1c2ccccc2CCc2ccccc21.Cl [TOFRANIL®]
response of hot flashes to earlier treatments (hot flashes [4]): limited success

OCCOCCN1CCN(C2=Nc3ccccc3Sc3ccccc32)CC1 [quetiapine]
dissociation from the D2 receptor (D2 dopamine receptor): rapidly disassociates

COc1ccc(C(CN(C)C)C2(O)CCCCC2)cc1 (stereo not drawn) [venlafaxine]
reduction in hot-flash scores (hot flashes [8]; low-dose (37.5 mg/day), placebo 27%): 37%
reduction in hot-flash scores (hot flashes [8]; moderate and high doses (75 and 150 mg/day)): 61%
minimizing occurrence and severity of hot flashes versus placebo (hot flashes [8]): more effective than placebo

Fc1ccc([C@@H]2CCNC[C@H]2COc2ccc3c(c2)OCO3)cc1 [paroxetine]
minimizing occurrence and severity of hot flashes versus placebo (hot flashes [8]): more effective than placebo

NCC1(CC(=O)O)CCCCC1 [gabapentin]
reduction of the incidence of hot flashes (hot flashes [9]): 42%-70%

CC(=O)O[C@]1(C(C)=O)CC[C@H]2[C@@H]3C=C(C)C4=CC(=O)CC[C@]4(C)[C@H]3CC[C@@]21C [megestrol acetate]
reduction in self-reported hot flash frequency (hot flashes [10]): ~80%

CNCCC(Oc1ccc(C(F)(F)F)cc1)c1ccccc1 (stereo not drawn) [Fluoxetine]
response of hot flashes to earlier treatments (hot flashes [4]): limited success
reduction in hot-flash scores (hot flashes [8]; 20 mg/day, placebo 36%, P=0.02): 50%

estrogen
response to estrogen therapy (hot flashes [6]; perimenopausal person): responded well
